Measurements reported in patent US20090306221A1, “Use for Cannabinoid” (GW PHARMA LIMITED, priority 2006, published 2009).

Target: human cannabinoid CB2 receptors (Homo sapiens, UniProt P34972)
Assay: [35S]GTPγS binding assay, hCB2-transfected CHO cell membranes
Conditions: stimulation of [35S]GTPγS binding
Description: CHO cells were stably transfected with cDNA encoding human cannabinoid CB2 receptors and were maintained at 37° C. and 5% CO2 in Dulbecco's Modified Eagle's Medium nutrient mixture.
The assays were carried out with GTPγS binding buffer (50 mM Tris-HCl; 50 mM Tris-Base; 5 mM MgCl2; 1 mM EDTA; 100 mM NaCl; 1 mM DTT; 0.1% BSA) in the presence of [^35S]GTPγS and GDP, in a final volume of 500 μl. Binding was initiated by the addition of [^35S]GTPγS to the tubes. The drugs were incubated in the assay for 60 min at 30° C. The reaction was terminated by a rapid vacuum filtration method using Tris buffer (50 mM Tris-HCl; 50 mM Tris-Base; 0.1% BSA), as described previously, and the radioactivity was quantified by liquid scintillation spectrometry.
The agonism of the CB1 or CB2 receptors by CP55940 results in a response in the cell. This response is the binding of [^35S]GTPγS to the cell membrane.
Changes in the response in the presence of the test compound can be measured in order to determine whether the compound is acting as an agonist, a neutral antagonist or an inverse agonist.

Sequence of human cannabinoid CB2 receptors (P34972 whole entry): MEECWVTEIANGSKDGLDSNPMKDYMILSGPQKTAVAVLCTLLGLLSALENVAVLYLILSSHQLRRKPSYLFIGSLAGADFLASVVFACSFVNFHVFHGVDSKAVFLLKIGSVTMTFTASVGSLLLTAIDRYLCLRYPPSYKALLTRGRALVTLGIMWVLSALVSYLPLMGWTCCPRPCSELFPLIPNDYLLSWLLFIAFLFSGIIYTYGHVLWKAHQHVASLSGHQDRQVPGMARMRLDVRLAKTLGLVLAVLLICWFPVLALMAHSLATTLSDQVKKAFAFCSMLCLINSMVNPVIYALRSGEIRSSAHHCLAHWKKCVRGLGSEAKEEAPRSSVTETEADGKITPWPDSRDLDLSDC

SR144528 was tested, and the “shift in the log-concentration response curve of CP55940” value was “downward and rightward shift”.
